Test results reported in patent US7468369B2, “Sulfonyl pyrrolidines, method for producing the same and their use as drugs” (Sanofi-Aventis, priority 2005, dated 2008).

Test system: human ABCA1 promoter
Test: ABCA1 promoter test (luciferase reporter in stably transfected THP1 cell line)
Type: cell-based
Conditions: Homo sapiens, THP-1; ABCA1 reporter cell line (THP1, PMA-differentiated), 24 h incubation, luciferase chemiluminescence; read-out: E50 ABCA1
Procedure: The potency of substances which activate expression of the human ABCA1 gene via its promoter is analyzed by using a stably transfected THP1 cell line (human monocyte cell line) which is referred to herein as ABCA1 reporter cell line. It contains a fragment, 3.2 kb in size and stably integrated into the genome, of the human ABCA1 promoter in front of a luciferase reporter element. Expression of the luciferase reporter gene is only low without addition of an ABCA1 expression activator. The substances stimulating ABCA1 expression bring about, via activation of the ABCA1 promoter, an enhanced expression of the luciferase reporter gene. The luciferase which is formed can be detected via an appropriate substrate by means of chemiluminescence.
Construction of the Cell Line
The ABCA1 reporter line was prepared as follows: firstly the neomycin resistance gene (Acc. No.: AJ000156) was introduced into the luciferase reporter plasmid pLG3basic (#1751, Promega) 3′ below the luciferase reporter element. Subsequently, an ABCA1 promoter fragment, 3.2 kb in size and amplified from human genomic DNA (#6550-1, Clontech) by the polymerase chain reaction, was cloned in 5′ above the luciferase reporter element. The reporter plasmid produced in this way was called pGL3BN-ABCA1P. Luciferase expression in this plasmid is controlled by the ABCA1 promoter. Cloning and sequencing of the construct took place in analogy to the description in Sambrook J et al. (Molecular cloning, Cold Spring Harbor Laboratory Press, 1989). For stable transfection into THP1 cells, firstly pGL3BN-ABCA1P was linearized with a restriction endonuclease and then introduced into the THP1 cells as stated in Ausubel, F. M. et al. (Current protocols in molecular biology, Vol. 1-3, John Wiley & Sons, Inc., 1995).
The activity of ABCA1 expression activators is determined in a 3-day test which is described below:
The ABCA1 reporter cell line comprises suspension cells. These are cultured until the concentration is 0.5×10^6 cells/ml in RPMI medium (#52400-025, Invitrogen) which is mixed with the following additions: 10% FCS (fetal calf serum; #16000-044, invitrogen), 0.5 mg/ml Geneticin (#10131-019, invitrogen) and 1% penicillin-streptomycin solution (#15140-122, invitrogen). The culturing takes place in standard cell culture flasks (#353112, Becton Dickinson) in a cell culture incubator at 37° C. in the presence of 5% CO2.
For the ABCA1 promoter test, the suspension cells are centrifuged at 1200 rpm in 50 ml tubes. The supernatant is aspirated off, and the pellet is resuspended in 15 ml of RPMI medium and counted in a cell counter. After dilution to 175 000 cells/ml, 0.1 μg/ml PMA (phorbol 12-myristate 13-acetate, #8139-5MG, Sigma) is added in order to induce differentiation of the monocytic THP1 suspension cells into adherent macrophages. 35 000 cells in each well are seeded in a 96-well microtiter plate with clear plastic base (#3610, Corning Costar). The plates are incubated in a cell culture incubator at 37° C. and 5% CO2 for 24 h.
The ABCA1 expression activators to be tested are dissolved in a concentration of 10 mM in DMSO. This stock solution is diluted in the RPMI medium (mixed with 0.1 μg/ml PMA) described above. Test substances are tested in 11 different concentrations in the range from […] to 330 pM. The medium of the ABCA1 reporter cell line seeded on day 1 is completely removed by aspiration and the diluted test substances are immediately added to the cells. The dilution and addition of the substances takes place with a pipetting robot (Beckman FX). The final volume of the test substances diluted in medium is 100 μl per well of a 96-well microtiter plate. The DMSO concentration in the test is less than 0.1% v/v in order to avoid cytotoxic effects of the solvent.
The test plates are incubated in an incubator at 37° C. and 5% CO2 for 24 h.
The ABCA1 reporter cells treated with the test substances are removed from the incubator and the medium is aspirated off. […]

EC50 | Compound
2570 nM | Cc1ccc(N2CCN(C(=O)[C@@H]3CN(S(=O)(=O)c4cc(Br)c(Br)s4)C[C@H]3c3ccccc3)CC2)c(C)c1 (racemic) [Example 37, [1-(4,5-Dibromothiophene-2-sulfonyl)-3,4-trans-4-phenylpyrrolidin-3-yl]-[4-(2,4-dimethylphenyl)piperazin-1-yl]methanone]
2660 nM | Cc1ccc(N2CCN(C(=O)[C@@H]3CN(S(=O)(=O)c4ccc(Cl)s4)C[C@H]3c3ccccc3)CC2)c(C)c1 (racemic) [Example 38, [1-(5-Chlorothiophene-2-sulfonyl)-3,4-trans-4-phenylpyrrolidin-3-yl]-[4-(2,4-dimethylphenyl)piperazin-1-yl]methanone]
3730 nM | Cc1ccc(N2CCN(C(=O)[C@@H]3CN(S(=O)(=O)c4cc(Cl)c(Cl)s4)C[C@H]3c3ccccc3)CC2)c(C)c1 (racemic) [Example 39]
18800 nM | Cc1ccc(N2CCN(C(=O)[C@@H]3CN(S(=O)(=O)c4cccs4)C[C@H]3c3ccccc3)CC2)cc1C (racemic) [Example 42, [4-(3,4-Dimethylphenyl)piperazin-1-yl]-[3,4-trans-4-phenyl-1-(thiophene-2-sulfonyl)pyrrolidin-3-yl)methanone]
4080 nM | Cc1ccc(N2CCN(C(=O)[C@@H]3CN(S(=O)(=O)c4cc(Br)c(Br)s4)C[C@H]3c3ccccc3)CC2)cc1C (racemic) [Example 43, [1-(4,5-Dibromothiophene-2-sulfonyl)-3,4-trans-4-phenylpyrrolidin-3-yl]-[4-(3,4-dimethylphenyl)piperazin-1-yl]methanone]
15100 nM | Cc1ccc(N2CCN(C(=O)[C@@H]3CN(S(=O)(=O)c4ccc(Cl)s4)C[C@H]3c3ccccc3)CC2)cc1C (racemic) [Example 44, [1-(5-Chlorothiophene-2-sulfonyl)-3,4-trans-4-phenylpyrrolidin-3-yl]-[4-(3,4-dimethylphenyl)piperazin-1-yl]methanone]
4620 nM | Cc1ccc(N2CCN(C(=O)[C@@H]3CN(S(=O)(=O)c4cc(Cl)c(Cl)s4)C[C@H]3c3ccccc3)CC2)cc1C (racemic) [Example 45]
706 nM | Cc1ccc(C)c(N2CCN(C(=O)[C@@H]3CN(S(=O)(=O)c4ccc(Cl)s4)C[C@H]3c3ccccc3)CC2)c1 (racemic) [Example 48, [1-(5-Chlorothiophen-2-sulfonyl)-3,4-trans-4-phenylpyrrolidin-3-yl]-[4-(2,5-dimethylphenyl)piperazin-1-yl]methanone]
1950 nM | Cc1ccc(C)c(N2CCN(C(=O)[C@@H]3CN(S(=O)(=O)c4cc(Cl)c(Cl)s4)C[C@H]3c3ccccc3)CC2)c1 (racemic) [Example 49, [1-(4,5-Dichlorothiophene-2-sulfonyl)-3,4-trans-4-phenylpyrrolidin-3-yl]-[4-(2,5-dimethylphenyl)piperazin-1-yl]methanone]
7340 nM | COC(=O)c1cc(C)c(S(=O)(=O)N2C[C@@H](C(=O)N3CCN(c4cc(C)ccc4C)CC3)[C@H](c3ccccc3)C2)s1 (racemic) [Example 50, Methyl 5-{3,4-trans-3-[4-(2,5-dimethylphenyl)piperazine-1-carbonyl]-4-phenylpyrrolidine-1-sulfonyl}-4-methylthiophene-2-carboxylate]
2770 nM | Cc1ccc(C)c(N2CCN(C(=O)[C@@H]3CN(S(=O)(=O)c4sc5ccc(Cl)cc5c4C)C[C@H]3c3ccccc3)CC2)c1 (racemic) [Example 51, [1-(5-Chloro-3-methylbenzo[b]thiophene-2-sulfonyl)-3,4-trans-4-phenyl-pyrrolidin-3-yl]-[4-(2,5-dimethylphenyl)piperazin-1-yl]methanone]
3270 nM | Cc1cccc(N2CCN(C(=O)[C@@H]3CN(S(=O)(=O)c4cccs4)C[C@H]3c3ccccc3)CC2)c1C (racemic) [Example 52]
5760 nM | Cc1cccc(N2CCN(C(=O)[C@@H]3CN(S(=O)(=O)c4cc(Br)c(Br)s4)C[C@H]3c3ccccc3)CC2)c1C (racemic) [Example 53, [1-(4,5-Dibromothiophene-2-sulfonyl)-3,4-trans-4-phenylpyrrolidin-3-yl]-[4-(2,3-dimethylphenyl)piperazin-1-yl]methanone]
4630 nM | Cc1cccc(N2CCN(C(=O)[C@@H]3CN(S(=O)(=O)c4ccc(Cl)s4)C[C@H]3c3ccccc3)CC2)c1C (racemic) [Example 54, [1-(5-Chlorothiophene-2-sulfonyl)-3,4-trans-4-phenylpyrrolidin-3-yl]-[4-(2,3-dimethylphenyl)piperazin-1-yl]methanone]
826 nM | Cc1cccc(N2CCN(C(=O)[C@@H]3CN(S(=O)(=O)c4cc(Cl)c(Cl)s4)C[C@H]3c3ccccc3)CC2)c1C (racemic) [Example 55, [1-(4,5-Dichlorothiophene-2-sulfonyl)-3,4-trans-4-phenylpyrrolidin-3-yl]-[4-(2,3-dimethylphenyl)piperazin-1-yl]methanone]
1160 nM | COc1ccc(N2CCN(C(=O)[C@@H]3CN(S(=O)(=O)c4cc(Br)c(Br)s4)C[C@H]3c3ccccc3)CC2)cc1 (racemic) [Example 59]
6680 nM | COc1ccc(N2CCN(C(=O)[C@@H]3CN(S(=O)(=O)c4ccc(Cl)s4)C[C@H]3c3ccccc3)CC2)cc1 (racemic) [Example 60, [1-(5-Chlorothiophene-2-sulfonyl)-3,4-trans-4-phenylpyrrolidin-3-yl]-[4-(4-methoxyphenyl)piperazin-1-yl]methanone]
2610 nM | COc1ccc(N2CCN(C(=O)[C@@H]3CN(S(=O)(=O)c4cc(Cl)c(Cl)s4)C[C@H]3c3ccccc3)CC2)cc1 (racemic) [Example 61, [1-(4,5-Dichlorothiophene-2-sulfonyl)-3,4-trans-4-phenylpyrrolidin-3-yl]-[4-(4-methoxyphenyl)piperazin-1-yl]methanone]
3160 nM | O=C([C@@H]1CN(S(=O)(=O)c2cc(Br)c(Br)s2)C[C@H]1c1ccccc1)N1CCN(c2ccccc2)CC1 (racemic) [Example 64, [1-(4,5-Dibromothiophene-2-sulfonyl)-3,4-trans-4-phenylpyrrolidin-3-yl]-(4-phenylpiperazin-1-yl)methanone]
2190 nM | Cc1ccc(C)c(N2CCN(C(=O)[C@@H]3CN(S(=O)(=O)c4cccs4)C[C@H]3c3ccccc3)CC2)c1 (racemic) [Example 67, [4-(2,5-Dimethylphenyl)piperazin-1-yl]-[3,4-trans-4-phenyl-1-(thiophene-2-sulfonyl)pyrrolidin-3-yl]methanone]
330 nM | COc1cccc(S(=O)(=O)N2C[C@@H](C(=O)N3CCN(c4cc(C)ccc4C)CC3)[C@H](c3ccccc3)C2)c1 (racemic) [Example 69, [4-(2,5-Dimethylphenyl)piperazin-1-yl]-[1-(3-methoxybenzenesulfonyl)-3,4-trans-4-phenylpyrrolidin-3-yl]methanone]
381 nM | Cc1ccc(C)c(N2CCN(C(=O)[C@@H]3CN(S(=O)(=O)c4c(C)noc4C)C[C@H]3c3ccccc3)CC2)c1 (racemic) [Example 71, [1-(3,5-Dimethylisoxazole-4-sulfonyl)-3,4-trans-4-phenylpyrrolidin-3-yl]-[4-(2,5-dimethylphenyl)piperazin-1-yl]methanone]
459 nM | COc1cccc(S(=O)(=O)N2C[C@@H](C(=O)N3CCN(c4c(C)cccc4C)CC3)[C@H](c3ccccc3)C2)c1 (racemic) [Example 86]
